Patent US7749976B2, “Isolated PTPMT1 protein which mediates insulin production and uses thereof” (The Regents of the University of California, priority 2005, dated 2010)
Marks after values point to notes of the source that are not given here. Values belong to the compound of their own block, whether it stands above or below them.

Assays:
PLIP [1] = target: T1, PLIP (Mus musculus, UniProt Q66GT5); test: Phosphatase activity of various PTPs (malachite green / radiolabeled protein substrates); type: biochemical, murine; conditions: for Phosphatase activity, PLIP: mole of phosphate released/min/mol of enzyme, pH 5.5, triplicate, this study
T1 construct: ligating a PCR product encoding full-length PLIP; made in house; host or cells: Escherichia coli BL21 (DE3) CodonPlus RIL
T1 sequence (Q66GT5 32-193): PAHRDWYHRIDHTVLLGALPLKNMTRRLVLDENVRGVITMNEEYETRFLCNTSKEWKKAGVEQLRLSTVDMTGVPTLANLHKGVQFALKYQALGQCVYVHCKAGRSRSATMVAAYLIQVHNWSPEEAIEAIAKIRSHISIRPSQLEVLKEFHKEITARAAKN
Experimental: Recombinant murine PLIP was expressed as a fusion protein with N-terminal GST and 6-His tags in Escherichia coli BL21 (DE3) CodonPlus RIL cells (Stratagene). The expression construct was assembled by ligating a PCR product encoding full-length PLIP into the 5′-EcoR1 and 3′-Xho1 sites of a modified pET41 vector (pSJ6), kindly provided by Zhaohui Xu (University of Michigan). […] Cultures were then chilled on ice for 20 min, supplied with fresh antibiotics, induced with IPTG to a final concentration of 0.4 mM, and allowed to grow overnight @ 25° C., as previously described (Taylor and Dixon, 2003). All subsequent steps were performed @ 4° C. The cultures were pelleted by spinning @ 6000 rpm for 10 min in a Sorvall GSA rotor, resuspended in 30 ml of buffer (20 mM Imidazole, 50 mM Tris pH 7.4, 300 mM NaCl) with Complete protease inhibitors (Roche), and lysed via French Press. Insoluble material was removed by centrifugation @ 50,000 rpm for 30 min. The fusion protein was purified from the soluble supernatant first over Ni^2+ agarose beads, and then by successive separation on Superdex 75 and 200 gel filtration columns (Amersham). The resulting protein was concentrated, flash frozen in liquid nitrogen, and stored @−80° C. in 25% glycerol, 2 mM EDTA, and 2 mM DTT until use.
(§1) Di-C8 phosphoinosites (Echelon) and Dioleoyl-phosphatidylserine (Sigma) were dried together in a Speed Vac and resuspended via sonication in 18 μl assay buffer (100 mM sodium acetate, 50 mM bis-Tris, 50 mM Tris (pH 5.5), 10 mM DTT) to final concentrations of 50 μM and 500 μM, respectively. After prewarming at 37° C. for 5 min, reactions were initiated by the addition of 20 to 2000 ng of GST-PLIP diluted in assay buffer containing 1.0 mg/ml gelatin. Reactions were quenched after 5-30 min by the addition of 20 μl 0.1 M N-ethylmaleimide, and spun at 18,000×g for 10 min to sediment the lipid aggregates. Twenty-five microliters of the supernatant was added to 50 μl of malachite green reagent and vortexed. Samples were allowed to sit for 40 minutes for color development before measuring absorbance at 620 nm. Inorganic phosphate release was quantitated by comparison to a standard curve of KH2PO4 in dH2O.
(§2) Assays using radiolabeled protein substrates or pNPP were carried in assay buffer containing 50 mM sodium acetate, 25 mM bis-Tris, 25 mM Tris, and 2 mM DTT at pH 5.5 (GST-PLIP), 6.0 (VHR), or 7.0 (TC-PTP), at 30° C. Radiolabeled proteins and pNPP were prepared and assayed as previously reported (Taylor et al., 1997).

PTEN = PTEN (Homo sapiens, UniProt P60484); test: Phosphatase activity of various PTPs; type: biochemical; conditions: for Phosphatase activity, PTEN: phosphoinositide substrates, this study
PTEN, sequence (P60484 whole entry, species assumed): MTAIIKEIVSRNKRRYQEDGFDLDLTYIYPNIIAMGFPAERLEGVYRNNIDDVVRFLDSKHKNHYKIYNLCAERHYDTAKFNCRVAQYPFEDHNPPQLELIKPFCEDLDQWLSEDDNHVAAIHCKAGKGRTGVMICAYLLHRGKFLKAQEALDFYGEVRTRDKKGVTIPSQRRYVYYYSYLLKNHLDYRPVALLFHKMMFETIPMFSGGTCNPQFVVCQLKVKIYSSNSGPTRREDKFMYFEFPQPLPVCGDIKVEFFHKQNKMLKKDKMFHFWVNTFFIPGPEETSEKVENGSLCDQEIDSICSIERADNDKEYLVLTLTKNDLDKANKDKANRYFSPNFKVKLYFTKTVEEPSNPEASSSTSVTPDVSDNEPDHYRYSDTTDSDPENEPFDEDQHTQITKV

MTM1 [2] = target: T2, MTM1 (Homo sapiens, UniProt Q13496); conditions: Ref. 32; cited from earlier work
T2 sequence (Q13496 1-603): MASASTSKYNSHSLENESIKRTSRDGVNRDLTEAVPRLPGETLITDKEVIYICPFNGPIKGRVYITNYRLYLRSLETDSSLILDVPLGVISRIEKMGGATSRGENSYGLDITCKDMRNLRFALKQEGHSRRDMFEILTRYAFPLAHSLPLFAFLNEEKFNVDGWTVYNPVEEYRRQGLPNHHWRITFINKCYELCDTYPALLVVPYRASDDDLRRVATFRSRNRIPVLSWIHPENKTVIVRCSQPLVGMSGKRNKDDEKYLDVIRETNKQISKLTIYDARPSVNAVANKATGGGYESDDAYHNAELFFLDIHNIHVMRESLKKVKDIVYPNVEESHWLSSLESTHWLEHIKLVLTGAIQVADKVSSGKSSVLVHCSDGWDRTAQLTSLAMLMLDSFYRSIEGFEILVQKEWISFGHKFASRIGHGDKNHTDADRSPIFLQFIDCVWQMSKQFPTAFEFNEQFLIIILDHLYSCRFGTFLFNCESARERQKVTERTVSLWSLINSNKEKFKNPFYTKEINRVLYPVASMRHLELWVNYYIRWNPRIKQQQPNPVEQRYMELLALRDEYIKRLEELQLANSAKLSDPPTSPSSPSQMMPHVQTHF

PLIP [3] = target: T1, PLIP; test: Activity of PLIP against water soluble PI(5)P derivatives of varying acyl chain length; type: biochemical, murine; conditions: water soluble substrate
PLIP [4] = target: T1, PLIP; test: Kinetic analysis of PLIP phosphatase activity (saturation kinetics); type: biochemical, murine
Experimental: as §2
To further explore PLIP's propensity to act as a protein phosphatase, a kinetic analysis of its activity toward the artificial phosphotyrosine analog, para-nitrophenyl phosphate (pNPP), alongside with di-C8 PI(5)P were performed (Taylor et al., 1997). FIG. 3 illustrates the kinetic analysis of PLIP phosphatase activity. Saturation kinetics for PLIP against pNPP (A) and water-soluble di-C8 PI(5)P (B) are shown. V (reaction velocity) is in units of pmol/(min μg).

TC-PTP = target: T3, TC-PTP (Homo sapiens, UniProt P17706); test: Phosphatase activity of various PTPs (malachite green / radiolabeled protein substrates); type: biochemical
T3 sequence (P17706 1-415): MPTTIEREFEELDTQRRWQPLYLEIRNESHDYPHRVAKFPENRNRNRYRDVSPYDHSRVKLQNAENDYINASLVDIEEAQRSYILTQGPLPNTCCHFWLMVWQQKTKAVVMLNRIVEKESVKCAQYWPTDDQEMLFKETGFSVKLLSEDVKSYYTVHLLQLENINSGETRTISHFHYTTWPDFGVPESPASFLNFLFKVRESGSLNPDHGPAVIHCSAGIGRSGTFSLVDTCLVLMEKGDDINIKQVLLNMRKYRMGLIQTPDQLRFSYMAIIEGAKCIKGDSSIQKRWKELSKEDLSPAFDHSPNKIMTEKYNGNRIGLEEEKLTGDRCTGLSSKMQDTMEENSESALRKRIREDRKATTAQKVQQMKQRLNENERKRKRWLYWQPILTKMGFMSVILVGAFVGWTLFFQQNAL
Experimental: as §1, §2
(§3) Due to the only recent emergence of PI(5)P as a known signaling molecule, few PTP's have been tested for activity against this substrate. To ensure that activity against PI(5)P is not a common feature of PTP's, membrane-bound di-C8 PI(5)P was assayed using a known tyrosine-specific PTP (TC-PTP) and a known dual-specific PTP (VHR) (Ishibashi et al., 1992; Zhao et al., 1992; Ruzzene et al., 1993; Zhou et al., 1994; Denu et al., 1995).

VHR = VHR (Homo sapiens, UniProt P51452); test: as above; type: biochemical
VHR, sequence (P51452 whole entry, species assumed): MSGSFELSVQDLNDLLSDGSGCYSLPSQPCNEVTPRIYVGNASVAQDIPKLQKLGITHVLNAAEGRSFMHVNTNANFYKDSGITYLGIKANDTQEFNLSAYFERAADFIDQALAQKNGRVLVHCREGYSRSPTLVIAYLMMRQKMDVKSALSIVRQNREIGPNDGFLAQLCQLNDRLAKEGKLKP
Experimental: as §1, §2, §3

MTM1 [5] = target: T2, MTM1; test: Phosphatase activity of various PTPs; type: biochemical
[6] = mole of phosphate released/min/mol of enzyme, triplicate, this study

ATPase activity of PTPMT1 in vitro (PLIP [1]): extremely poor
Compound: Nc1ncnc2c1ncn2[C@@H]1O[C@H](COP(=O)(O)OP(=O)(O)OP(=O)(O)O)[C@@H](O)[C@H]1O [ATP]

Phosphatase activity, PLIP (PLIP [1]): 3.1^b mol/(min mol) | PTEN fold preference over PI(3,5)P2 (PTEN; di-C8 PIs in lipid bilayer with phosphatidylserine carrier lipid): 1.8 fold | Phosphatase activity, PTEN (PTEN): 346^b mol/(min mol)
Compound: CCCCCCCC(=O)OC[C@H](COP(=O)(O)OC1[C@H](O)[C@H](OP(=O)(O)O)C(OP(=O)(O)O)[C@H](OP(=O)(O)O)[C@H]1O)OC(=O)CCCCCCC (stereo partly drawn) [PI (3, 4, 5) P3]
Phosphatase activity, MTM1 (MTM1 [2]): 2.1^d mol/(min mol)

Fold increase in PLIP activity versus inositol (1,5)P2 (PLIP [3]): 10 fold
Compound: CCCC(=O)OCC(COP(=O)(O)OC1C(O)C(O)C(O)C(OP(=O)(O)O)C1O)OC(=O)CCC (stereo not drawn) [di-C4 PI(5)P]

TC-PTP activity (TC-PTP; membrane-bound di-C8 PI(5)P): barely detectable above background | Phosphatase activity, TC-PTP (TC-PTP; [6]): ~0.0^b mol/(min mol) | VHR activity (VHR; membrane-bound di-C8 PI(5)P): barely detectable above background | Phosphatase activity, VHR (VHR; [6]): ~0.0^b mol/(min mol) | PLIP activity, fold greater than against PI(3,5)P2 (PLIP [1]; di-C8 PI's in lipid bilayer with phosphatidylserine carrier lipid): 44 fold | Phosphatase activity, PLIP (PLIP [1]): 135^b mol/(min mol) | PTEN: fold less efficiency than toward preferred substrate (PTEN): 17 fold | Phosphatase activity, PTEN (PTEN): 20.4^b mol/(min mol) | MTM1: fold less efficiency than toward preferred substrate (MTM1 [5]): 200 fold | Km (PLIP [4]; PLIP against water-soluble di-C8 PI(5)P): 37.5 µM | Fold increase in PLIP activity versus di-C4 PI(5)P (PLIP [3]): 10 fold
Compound: phosphatidylinositol-5 phosphate [PI (5) P]
Phosphatase activity, MTM1 (MTM1 [2]): 22.7^d mol/(min mol)

Second part, the compound before the results:

Compound: CCCCCCCC(=O)OC[C@H](COP(=O)(O)O[C@@H]1[C@H](O)[C@H](OP(=O)(O)O)[C@@H](O)[C@H](O)[C@H]1O)OC(=O)CCCCCCC [PI (3) P]
Phosphatase activity, PLIP (PLIP [1]): 1.3^b mol/(min mol) | Phosphatase activity, PTEN (PTEN): 77.9^b mol/(min mol) | Phosphatase activity, MTM1 (MTM1 [2]): 4470^d mol/(min mol)

Compound: O=[N+]([O-])c1ccc(OP(=O)(O)O)cc1 [pNPP, para-nitrophenyl phosphate]
Km fold higher than Km for di-C8 PI(5)P (PLIP [4]): more than 150 fold | Km (PLIP [4]; PLIP against pNPP): 5900 µM

Compound: casein
PLIP activity, fold lower than against PI(5)P (PLIP [1]; radiolabeled protein substrates): approximately 1000 fold
